Experiments:
Assay type in all cases: in vivo
[1] = system: common ragweed (Ambrosia artemisiifolia L., AMBEL); assay: Post-emerge greenhouse herbicide test, phytotoxicity rating; conditions: 14 days after application
In short: (§1)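 Scores use a 0 (no damage) to 100 (complete kill) scale, taken 14 days after a foliar spray. Acetone solutions with 0.25% v/v non-ionic surfactant were applied by track sprayer at 187 l/ha and 63-1000 g ai/ha to bottom-watered 2-3 leaf plants.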

[2] = system: field corn (Zea mays L., var. Dekalb 535, CORN); assay: Post-emerge greenhouse test, crop damage rating; conditions: 14 days after application
In short: as §1

[3] = system: upland rice (Oryza sp., var.Tebonnet, RICE); assay: Post-emerge greenhouse test, crop damage rating; conditions: 14 days after application
In short: as §1

[4] = system: field corn (Zea mays L., var. Dekalb 535, CORN); assay: Pre-emerge greenhouse test, crop damage rating; conditions: 14 days after application, rating scale 0-100
In short: (§2)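 Visual 0–100 injury rating (100 = all plants dead) taken 14 days after treatment. Rates of 125–1000 g ai/ha in acetone, 187 l/ha, were sprayed onto soil one day post-sowing; pots were surface-watered to incorporate, then bottom-watered.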

[5] = system: upland rice (Oryza sp., var.Tebonnet, RICE); assay: Pre-emerge greenhouse test, crop damage rating; conditions: 14 days after application, rating scale 0-100
In short: as §2

[6] = system: soybean (Glycine max L., var. Pella 86, SOY); assay: Pre-emerge greenhouse test, crop damage rating; conditions: 14 days after application, rating scale 0-100
In short: as §2

[7] = system: redroot pigweed (Amaranthus retroflexus, AMARE); assay: Pre-emerge greenhouse herbicide test, phytotoxicity rating; conditions: 14 days after application, rating scale 0-100
In short: as §2

[8] = system: sicklepod (Cassia obtusifolia, CASOB); assay: as above; conditions: 14 days after application, rating scale 0-100
In short: as §2

[9] = system: barnyardgrass (Echinochloa crusgalli, ECHCG); assay: as above; conditions: 14 days after application, rating scale 0-100
In short: as §2

[10] = system: ivyleaf morningglory (Ipomoea hederacea, IPOHE); assay: as above; conditions: 14 days after application, rating scale 0-100
In short: as §2

[11] = system: Johnsongrass (Sorghum halepense, SORHA); assay: as above; conditions: 14 days after application, rating scale 0-100
In short: as §2

[12] = system: lambsquarters (Chenopodium album, CHEAL); assay: as above; conditions: 14 days after application, rating scale 0-100
In short: as §2

[13] = system: velvetleaf (Abutilon theophrasti, ABUTH); assay: as above; conditions: 14 days after application, rating scale 0-100
In short: as §2

[14] = system: large crabgrass (Digitaria sanguinalis, DIGSA); assay: as above; conditions: 14 days after application, rating scale 0-100
In short: as §2

[15] = system: green foxtail (Setaria viridis, SETVI); assay: as above; conditions: 14 days after application, rating scale 0-100
In short: as §2

[16] = system: common ragweed (Ambrosia artemisiifolia L., AMBEL); assay: as above; conditions: 14 days after application, rating scale 0-100
In short: as §2

[17] = system: soybean (Glycine max L., var. Pella 86, SOY); assay: Post-emerge greenhouse test, crop damage rating; conditions: 14 days after application
In short: as §1

[18] = system: redroot pigweed (Amaranthus retroflexus, AMARE); assay: Post-emerge greenhouse herbicide test, phytotoxicity rating; conditions: 14 days after application
In short: as §1

[19] = system: sicklepod (Cassia obtusifolia, CASOB); assay: as above; conditions: 14 days after application
In short: as §1

[20] = system: barnyardgrass (Echinochloa crusgalli, ECHCG); assay: as above; conditions: 14 days after application
In short: as §1

[21] = system: ivyleaf morningglory (Ipomoea hederacea, IPOHE); assay: as above; conditions: 14 days after application
In short: as §1

[22] = system: Johnsongrass (Sorghum halepense, SORHA); assay: as above; conditions: 14 days after application
In short: as §1

[23] = system: lambsquarters (Chenopodium album, CHEAL); assay: as above; conditions: 14 days after application
In short: as §1

[24] = system: velvetleaf (Abutilon theophrasti, ABUTH); assay: as above; conditions: 14 days after application
In short: as §1

[25] = system: large crabgrass (Digitaria sanguinalis, DIGSA); assay: as above; conditions: 14 days after application
In short: as §1

[26] = system: green foxtail (Setaria viridis, SETVI); assay: as above; conditions: 14 days after application
In short: as §1

In the case of `O=c1n(CCCF)nnn1-c1cc(Oc2ncccc2C(F)(F)F)c(Cl)cc1F` [Compound 6-6], the “AMBEL phytotoxicity rating (0-100)” value ([1]; 63 g al/ha) is reported as 20, the “AMBEL phytotoxicity rating (0-100)” value ([1]; 500 g al/ha) is reported as 20 and the “CORN crop damage rating (0-100)” value ([2]; 63 g al/ha) is reported as 5. For the same compound, the “CORN crop damage rating (0-100)” value ([2]; 500 g al/ha) was 15, the “RICE crop damage rating (0-100)” value ([3]; 63 g al/ha) was 20 and the “RICE crop damage rating (0-100)” value ([3]; 500 g al/ha) was 40. The “crop damage rating CORN” value ([4]; 125 g ai/ha) was 0, the “crop damage rating CORN” value ([4]; 500 g ai/ha) was 0 and the “crop damage rating RICE” value ([5]; 125 g ai/ha) was 0. The “crop damage rating RICE” value ([5]; 500 g ai/ha) was 30, the “crop damage rating SOY” value ([6]; 125 g ai/ha) was 0 and the “crop damage rating SOY” value ([6]; 500 g ai/ha) was 10. For the same compound, the “phytotoxicity rating AMARE” value ([7]; 125 g ai/ha) was 95, the “phytotoxicity rating AMARE” value ([7]; 500 g ai/ha) was 100 and the “phytotoxicity rating CASOB” value ([8]; 125 g ai/ha) was 10. For the same compound, the “phytotoxicity rating CASOB” value ([8]; 500 g ai/ha) was 0, the “phytotoxicity rating ECHCG” value ([9]; 125 g ai/ha) was 20 and the “phytotoxicity rating ECHCG” value ([9]; 500 g ai/ha) was 60. For the same compound, the “phytotoxicity rating IPOHE” value ([10]; 125 g ai/ha) was 30, the “phytotoxicity rating IPOHE” value ([10]; 500 g ai/ha) was 50 and the “phytotoxicity rating SORHA” value ([11]; 125 g ai/ha) was 30. For the same compound, the “phytotoxicity rating SORHA” value ([11]; 500 g ai/ha) was 95, the “phytotoxicity rating CHEAL” value ([12]; 125 g ai/ha) was 100 and the “phytotoxicity rating CHEAL” value ([12]; 500 g ai/ha) was 100. The “phytotoxicity rating ABUTH” value ([13]; 125 g ai/ha) was 80, the “phytotoxicity rating ABUTH” value ([13]; 500 g ai/ha) was 100 and the “phytotoxicity rating DIGSA” value ([14]; 125 g ai/ha) was 20. The “phytotoxicity rating DIGSA” value ([14]; 500 g ai/ha) was 100, the “phytotoxicity rating SETVI” value ([15]; 125 g ai/ha) was 95 and the “phytotoxicity rating SETVI” value ([15]; 500 g ai/ha) was 100. The “phytotoxicity rating AMBEL” value ([16]; 125 g ai/ha) was 30, the “phytotoxicity rating AMBEL” value ([16]; 500 g ai/ha) was 60 and the “SOY crop damage rating (0-100)” value ([17]; 63 g al/ha) was 10. For the same compound, the “SOY crop damage rating (0-100)” value ([17]; 500 g al/ha) was 50, the “AMARE phytotoxicity rating (0-100)” value ([18]; 63 g al/ha) was 70 and the “AMARE phytotoxicity rating (0-100)” value ([18]; 500 g al/ha) was 95. The “CASOB phytotoxicity rating (0-100)” value ([19]; 63 g al/ha) was 0, the “CASOB phytotoxicity rating (0-100)” value ([19]; 500 g al/ha) was 30 and the “ECHCG phytotoxicity rating (0-100)” value ([20]; 63 g al/ha) was 20. The “ECHCG phytotoxicity rating (0-100)” value ([20]; 500 g al/ha) was 70, the “IPOHE phytotoxicity rating (0-100)” value ([21]; 63 g al/ha) was 60 and the “IPOHE phytotoxicity rating (0-100)” value ([21]; 500 g al/ha) was 95. For the same compound, the “SORHA phytotoxicity rating (0-100)” value ([22]; 63 g al/ha) was 0, the “SORHA phytotoxicity rating (0-100)” value ([22]; 500 g al/ha) was 70 and the “CHEAL phytotoxicity rating (0-100)” value ([23]; 63 g al/ha) was 90. For the same compound, the “CHEAL phytotoxicity rating (0-100)” value ([23]; 500 g al/ha) was 100, the “ABUTH phytotoxicity rating (0-100)” value ([24]; 63 g al/ha) was 50 and the “ABUTH phytotoxicity rating (0-100)” value ([24]; 500 g al/ha) was 95. The “DIGSA phytotoxicity rating (0-100)” value ([25]; 63 g al/ha) was 0, the “DIGSA phytotoxicity rating (0-100)” value ([25]; 500 g al/ha) was 10 and the “SETVI phytotoxicity rating (0-100)” value ([26]; 63 g al/ha) was 10. The “SETVI phytotoxicity rating (0-100)” value ([26]; 500 g al/ha) was 40.

With `O=c1n(CCCF)nnn1-c1cc(Oc2ccc(C(F)(F)F)cn2)c(Cl)cc1F` [Compound 6-8] the “AMBEL phytotoxicity rating (0-100)” value ([1]; 500 g al/ha) was 20, the “CORN crop damage rating (0-100)” value ([2]; 500 g al/ha) was 5 and the “RICE crop damage rating (0-100)” value ([3]; 500 g al/ha) was 35. For the same compound, the “crop damage rating CORN” value ([4]; 500 g ai/ha) was 0, the “crop damage rating RICE” value ([5]; 500 g ai/ha) was 10 and the “crop damage rating SOY” value ([6]; 500 g ai/ha) was 0. For the same compound, the “phytotoxicity rating AMARE” value ([7]; 500 g ai/ha) was 85, the “phytotoxicity rating CASOB” value ([8]; 500 g ai/ha) was 0 and the “phytotoxicity rating ECHCG” value ([9]; 500 g ai/ha) was 0. The “phytotoxicity rating IPOHE” value ([10]; 500 g ai/ha) was 0, the “phytotoxicity rating SORHA” value ([11]; 500 g ai/ha) was 80 and the “phytotoxicity rating CHEAL” value ([12]; 500 g ai/ha) was 100. The “phytotoxicity rating ABUTH” value ([13]; 500 g ai/ha) was 80, the “phytotoxicity rating DIGSA” value ([14]; 500 g ai/ha) was 75 and the “phytotoxicity rating SETVI” value ([15]; 500 g ai/ha) was 100. The “phytotoxicity rating AMBEL” value ([16]; 500 g ai/ha) was 0, the “SOY crop damage rating (0-100)” value ([17]; 500 g al/ha) was 60 and the “AMARE phytotoxicity rating (0-100)” value ([18]; 500 g al/ha) was 80. The “CASOB phytotoxicity rating (0-100)” value ([19]; 500 g al/ha) was 40, the “ECHCG phytotoxicity rating (0-100)” value ([20]; 500 g al/ha) was 10 and the “IPOHE phytotoxicity rating (0-100)” value ([21]; 500 g al/ha) was 60. The “SORHA phytotoxicity rating (0-100)” value ([22]; 500 g al/ha) was 10, the “CHEAL phytotoxicity rating (0-100)” value ([23]; 500 g al/ha) was 95 and the “ABUTH phytotoxicity rating (0-100)” value ([24]; 500 g al/ha) was 98. The “DIGSA phytotoxicity rating (0-100)” value ([25]; 500 g al/ha) was 20 and the “SETVI phytotoxicity rating (0-100)” value ([26]; 500 g al/ha) was 90.
